Measured values published in article PMC4698308, “A new amino acid substitution (Ala-205-Phe) in acetolactate synthase (ALS) confers broad spectrum resistance to ALS-inhibiting herbicides” (Planta, 2015).

Assays:
[1] = molecular target: T1, recombinant Arabidopsis thaliana ALS wild-type enzyme (WT—sensitive) (Arabidopsis thaliana, UniProt P17597); assay: biochemical
T1 construct: Protein constructs contained an 85 amino acid N-terminal deletion (chloroplast transit peptide); Hexa-histidine tag (N); made in house
T1 sequence (P17597 86-670): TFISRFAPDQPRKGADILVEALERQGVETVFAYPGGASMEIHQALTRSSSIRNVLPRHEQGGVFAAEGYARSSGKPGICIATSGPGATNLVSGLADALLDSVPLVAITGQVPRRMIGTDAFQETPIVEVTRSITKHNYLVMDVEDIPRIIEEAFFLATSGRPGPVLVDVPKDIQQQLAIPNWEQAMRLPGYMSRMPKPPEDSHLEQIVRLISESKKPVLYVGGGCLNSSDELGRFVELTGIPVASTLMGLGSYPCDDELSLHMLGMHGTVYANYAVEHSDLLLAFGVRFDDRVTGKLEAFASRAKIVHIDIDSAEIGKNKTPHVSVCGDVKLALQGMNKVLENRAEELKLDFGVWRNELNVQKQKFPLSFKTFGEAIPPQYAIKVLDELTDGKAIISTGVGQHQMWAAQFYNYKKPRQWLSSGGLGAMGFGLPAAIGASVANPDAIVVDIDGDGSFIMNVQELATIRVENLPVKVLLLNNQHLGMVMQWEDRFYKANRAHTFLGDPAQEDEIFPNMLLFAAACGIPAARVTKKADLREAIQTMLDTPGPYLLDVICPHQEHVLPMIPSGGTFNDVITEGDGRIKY
Outline: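 His-tagged enzymes lacking the 85-residue N-terminal transit peptide, expressed and purified. Herbicides in DMSO added; reaction 60 min at 30 °C, stopped with H2SO4, acetolactate converted to acetoin at 56 °C for 15 min.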

[2] = system: annual bluegrass (Poa annua L.); assay: Whole plant confirmation of target-site resistance (visual control and dry biomass 28 days after treatment); assay type: in vivo
Method: Progeny of all POAAN-R3 plants subjected to genetic sequencing (RP1–RP8) were surface seeded into separate 10.2 × 10.2 cm greenhouse pots (Dillen Products/Myers Industries, Inc. Middlefield, OH, USA.) filled with a peat moss growing medium (ProMix BX Mycorrhizae. Premier Tech Horticulture, Quakertown, PA, USA) on 5 January 2015. The susceptible annual bluegrass population (S) included in our sequencing analysis was also seeded in the same fashion.
After seeding, pots were placed inside a growth chamber (Conviron A1000. Controlled Environments Inc, Hendersonville, NC) configured to provide 14 h day at 19 °C and a 10 h night at 10 °C. Light intensity inside the chamber averaged 296 μmol m^−2 s^−1. Irrigation was applied to each pot daily using distilled water and a misting nozzle. Annual bluegrass emergence was first noted on 16 January 2015. Plants remained inside the growth chamber until 26 January 2015. On this date, seedlings of each plant (RP1–RP8, S) were transplanted into individual 164 cm^3 plastic conical containers (SC10 Super Cell Cone-tainer. Stuewe and Sons. Tangent, OR 97389) filled with Sequatchie silt loam (fine-loamy, siliceous, semiactive, thermic humic Hapludult) measuring 6.2 in soil pH and 2.1 % in organic matter content. Transplants were replicated such that 32 plastic conical containers were created for each annual bluegrass plant analyzed in previous experiments (RP1–RP8, S). Immediately after transplanting, plastic conical containers were placed in a glasshouse located at the University of Tennessee (Knoxville, TN, USA; 35.56, 83.56). Peak light intensity in this glasshouse averaged 714 μmol m^−2 s^−1 with day/night temperatures averaging 27/17 °C. Irrigation was applied daily using an overhead misting system and plants were not clipped prior to initiating this study.
Plants were allowed to acclimate to this glasshouse environment for 10 days prior to being treated with foramsulfuron (Revolver. Bayer Environmental Sciences. Research Triangle Park, NC, USA) at 29 g ha^−1, imazamox (Clearcast. BASF Corporation. Research Triangle Park, NC) at 140 g ha^−1, or simazine (Princep 4L. Syngenta Professional Products. Greensboro, NC) at 1120 g ha^−1. Per label recommendations, imazamox and simazine treatments included a non-ionic surfactant (Activator-90. Loveland Products Inc. Greeley, CO, USA) at 0.25 % v/v. All treatments were applied in an enclosed spray chamber (Generation III track sprayer. DeVries Manufacturing, Hollandale, MN, USA) using a water carrier at 215 L ha^−1 through an 8004 EVS nozzle (TeeJet, Technologies, Spraying Systems Co., Glendale Heights, IL, USA). These herbicide treatments were selected to confirm results of genetic sequencing that RP1–RP8 were resistant to sulfonylurea, imidazolinone, and photosystem II inhibiting herbicides. A non-treated control treatment was included with each resistant (RP1–RP8) and susceptible (S) plant for comparison. Herbicides were applied on 5 February 2015 when plants were at a two-to-three leaf stage, prior to annual bluegrass tiller formation.
Annual bluegrass control was visually assessed on a 0 (i.e., no control) to 100 % (i.e., complete kill) scale relative to the non-treated 28 days after treatment. After all control data had been collected, aboveground biomass was harvested from each plastic conical container at the soil line using scissors, dried at 100 °C for 3 days, and weighed.
Treatments were arranged as a 9 × 4 factorial with nine plant selections (i.e., RP1–RP8, S) and four herbicide treatments (i.e., foramsulfuron, imazamox, simazine, non-treated) in a completely randomized design with four replications and repeated in time and space during February 2015. Plants were the same age during both experimental runs.

[3] = system: ALS in POAAN-R3 and susceptible annual bluegrass plants; parameters: method as in Brosnan et al. [2015]; settings: increasing concentrations from 0 to 100 μM; ref Brosnan et al. [2015]; cited from earlier work

COc1cc(OC)nc(NC(=O)NS(=O)(=O)c2cc(NC=O)ccc2C(=O)N(C)C)n1 [Foramsulfuron]
IC50 [1]: 7.5 nM
annual bluegrass control, resistant plants with the exception of RP6 ([2]; 28 days after treatment, summary over RP1–RP5, RP7, RP8): ≤ 11%
Annual bluegrass biomass RP1 ([2]; RP1, aboveground dry biomass 28 days after treatment, foramsulfuron 29, imazamox 140, simazine 1120 g ha^-1): 60 % of nontreated control
Annual bluegrass control RP1 ([2]; RP1 plants, 28 days after treatment, 2 to 3 leaf stage, foramsulfuron 29, imazamox 140, simazine 1120 g ha^−1): 8%
Annual bluegrass biomass RP2 ([2]; RP2, aboveground dry biomass 28 days after treatment, foramsulfuron 29, imazamox 140, simazine 1120 g ha^-1): 45 % of nontreated control
Annual bluegrass control RP2 ([2]; RP2 plants, 28 days after treatment, 2 to 3 leaf stage, foramsulfuron 29, imazamox 140, simazine 1120 g ha^−1): 11%
Annual bluegrass biomass RP3 ([2]; RP3, aboveground dry biomass 28 days after treatment, foramsulfuron 29, imazamox 140, simazine 1120 g ha^-1): 48 % of nontreated control
Annual bluegrass control RP3 ([2]; RP3 plants, 28 days after treatment, 2 to 3 leaf stage, foramsulfuron 29, imazamox 140, simazine 1120 g ha^−1): 11%
Annual bluegrass biomass RP4 ([2]; RP4, aboveground dry biomass 28 days after treatment, foramsulfuron 29, imazamox 140, simazine 1120 g ha^-1): 41 % of nontreated control
Annual bluegrass control RP4 ([2]; RP4 plants, 28 days after treatment, 2 to 3 leaf stage, foramsulfuron 29, imazamox 140, simazine 1120 g ha^−1): 5%
Annual bluegrass biomass RP5 ([2]; RP5, aboveground dry biomass 28 days after treatment, foramsulfuron 29, imazamox 140, simazine 1120 g ha^-1): 62 % of nontreated control
Annual bluegrass control RP5 ([2]; RP5 plants, 28 days after treatment, 2 to 3 leaf stage, foramsulfuron 29, imazamox 140, simazine 1120 g ha^−1): 10%
Annual bluegrass biomass RP6 ([2]; RP6, aboveground dry biomass 28 days after treatment, foramsulfuron 29, imazamox 140, simazine 1120 g ha^-1): 49 % of nontreated control
Annual bluegrass control RP6 ([2]; RP6 plants, 28 days after treatment, 2 to 3 leaf stage, foramsulfuron 29, imazamox 140, simazine 1120 g ha^−1): 24%
Annual bluegrass biomass RP7 ([2]; RP7, aboveground dry biomass 28 days after treatment, foramsulfuron 29, imazamox 140, simazine 1120 g ha^-1): 52 % of nontreated control
Annual bluegrass control RP7 ([2]; RP7 plants, 28 days after treatment, 2 to 3 leaf stage, foramsulfuron 29, imazamox 140, simazine 1120 g ha^−1): 10%
Annual bluegrass biomass RP8 ([2]; RP8, aboveground dry biomass 28 days after treatment, foramsulfuron 29, imazamox 140, simazine 1120 g ha^-1): 51 % of nontreated control
Annual bluegrass control RP8 ([2]; RP8 plants, 28 days after treatment, 2 to 3 leaf stage, foramsulfuron 29, imazamox 140, simazine 1120 g ha^−1): 5%
Annual bluegrass control S ([2]; susceptible (S) plants, 28 days after treatment, 2 to 3 leaf stage, foramsulfuron 29, imazamox 140, simazine 1120 g ha^−1): 93%
Annual bluegrass biomass S ([2]; susceptible (S), aboveground dry biomass 28 days after treatment, foramsulfuron 29, imazamox 140, simazine 1120 g ha^-1): 0 % of nontreated control
differences in the in vitro activity of ALS in POAAN-R3 and susceptible plants [3]: no differences
